According to the supplement of paper PMC10307832:

Key:
Experiment in all cases: relative viability (nuclei count vs DMSO), 5 days (fraction); higher = more cells survive
[1] = compound: NCC(=O)Nc1ccc(-n2nc(C(F)(F)F)cc2-c2ccc3c(ccc4ccccc43)c2)cc1 + Cc1nc(NC(=O)N2CCC[C@H]2C(N)=O)sc1-c1ccnc(C(C)(C)C(F)(F)F)c1 [Alpelisib] (partner 2 µM)
In short: (§1)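 Medians of duplicate plates are given as relative viability. That measure is the nuclei count in treated wells divided by the count in vehicle wells. Counts were taken on 4× images of lung cancer cell lines in 1536-well plates, 5 days after pin-tool dosing the day after seeding with one drug alone or a fixed anchor-drug dose plus five library-drug doses (not always all listed) in √10 steps.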

[2] = compound: NCC(=O)Nc1ccc(-n2nc(C(F)(F)F)cc2-c2ccc3c(ccc4ccccc43)c2)cc1 + COc1cccc2cc(-c3nc([C@H]4CC[C@H](C(=O)O)CC4)n4ncnc(N)c34)[nH]c12 [OSI-027] (partner 0.5 µM)
In short: as §1

[3] = compound: C1CSC2=C(C(=O)N1)SC3=C2C=C(C=C3)O [kb NB 142-70] + Cc1nc(Nc2ncc(C(=O)Nc3c(C)cccc3Cl)s2)cc(N2CCN(CCO)CC2)n1 [Dasatinib] (partner 0.075 µM)
In short: as §1

[4] = compound: NCC(=O)Nc1ccc(-n2nc(C(F)(F)F)cc2-c2ccc3c(ccc4ccccc43)c2)cc1 + O=C(CCCCCCC(=O)Nc1ccccc1)NO [Vorinostat] (partner 1 µM)
In short: as §1

| Cell Line | relative viability ([1]; first compound 0.02 µM) | relative viability ([1]; first compound 0.06325 µM) | relative viability ([1]; first compound 0.2 µM) | relative viability ([1]; first compound 0.6325 µM) | relative viability ([1]; first compound 2 µM) | relative viability ([2]; first compound 0.02 µM) | relative viability ([2]; first compound 0.06325 µM) | relative viability ([2]; first compound 0.2 µM) | relative viability ([2]; first compound 0.6325 µM) | relative viability ([2]; first compound 2 µM) | relative viability ([3]; first compound 0.1 µM) | relative viability ([3]; first compound 1 µM) | relative viability ([3]; first compound 3.162 µM) | relative viability ([4]; first compound 0.02 µM) | relative viability ([4]; first compound 0.06325 µM) | relative viability ([4]; first compound 0.2 µM) | relative viability ([4]; first compound 0.6325 µM) | relative viability ([4]; first compound 2 µM) |
| --- | --- | --- | --- | --- | --- | --- | --- | --- | --- | --- | --- | --- | --- | --- | --- | --- | --- | --- |
| SK-MES-1 | 1.02 | 0.981 | 0.925 | 0.816 | 0.919 | 0.677 | 0.575 | 0.622 | 0.616 | 0.646 | 0.422 | 0.49 | 0.337 | 1.06 | 1.07 | 1.17 | 1.02 | 1.23 |
| SW 1573 | 0.782 | 0.741 | 0.807 | 0.75 | 0.765 | 0.593 | 0.658 | 0.759 | 0.487 | 0.551 | 0.491 | 0.458 | 0.188 | 0.647 | 0.749 | 0.831 | 0.703 | 0.661 |
| NCI-H661 | 0.82 | 0.626 | 0.693 | 0.758 | 0.94 | 0.681 | 0.691 | 0.724 | 0.673 | 0.715 | 0.916 | 0.89 | 0.796 | 0.811 | 0.817 | 0.774 | 0.821 | 0.784 |
| PC-3 [JPC-3] | 1.04 | 1.07 | 1.05 | 1.07 | 1.13 | 0.802 | 0.761 | 0.777 | 0.715 | 0.872 | 0.94 | 1.05 | 1.02 | 0.902 | 0.854 | 0.778 | 1.03 | 0.822 |
| NCI-H1623 | – | – | – | – | – | 0.439 | 0.475 | 0.395 | 0.494 | 0.432 | 0.552 | 0.558 | 0.428 | – | – | – | – | – |
| Calu-6 | 1.05 | 1.07 | 1.15 | 0.943 | 0.913 | – | – | – | – | – | – | – | – | – | – | – | – | – |
| LC-2-ad | 1.07 | 0.947 | 0.945 | 0.883 | 0.959 | 0.755 | 0.911 | 0.647 | 0.75 | 1.05 | 0.609 | 0.607 | 0.463 | 0.68 | 0.757 | 0.769 | 0.673 | 0.76 |
| CAL-12T | 1.2 | 1.27 | 1.34 | 1.03 | 1.03 | 0.619 | 0.651 | 0.644 | 0.604 | 0.621 | 0.408 | 0.375 | 0.414 | 0.692 | 0.822 | 1.04 | 0.684 | 0.916 |
| RERF-LC-KJ | 0.848 | 0.899 | 0.734 | 0.883 | 0.937 | 0.542 | 0.608 | 0.515 | 0.644 | 0.583 | 0.834 | 0.872 | 0.752 | 0.59 | 0.652 | 0.609 | 0.758 | 0.772 |
| NCI-H1650 | – | – | – | – | – | 0.7 | 0.806 | – | 0.73 | 0.634 | 0.348 | 0.382 | 0.253 | 0.71 | 0.676 | 0.556 | 0.692 | 0.559 |
| BEN | 1.04 | 1.06 | 1.1 | 1.05 | 1.06 | 0.281 | 0.32 | 0.296 | 0.326 | 0.297 | 0.307 | 0.303 | 0.209 | 0.579 | 0.526 | 0.56 | 0.593 | 0.586 |
